The results in this text go back to patent US9409952B2, “Peptide-compound cyclization method” (Chugai Seiyaku Kabushiki Kaisha, priority 2011, dated 2016).

Like-named read-outs stand apart in the source and are kept apart here. Starred links: 1 amine or outer side, 2 acyl side, 3 side chain; linkers in the order of their positions; H or OH if unused. Positions of bridges follow the written chain, without caps; N, C: chain ends. Non-standard residues stand in square brackets, D forms with d. Residues, ends and D or L forms follow the SMILES beside them. *: point of attachment. Phe(3-(CH2)4CO) = O=C([C@H](Cc1cccc(CCCCC(=O)[*:3])c1)N[*:1])[*:2]; Phe(4-CF3) = N[C@@H](Cc1ccc(C(F)(F)F)cc1)C(=O)O; NMeF = CN[C@@H](Cc1ccccc1)C(=O)O; NMeGABA = CN(CCCC(=O)[*:2])[*:1]; NMeI = CC[C@H](C)[C@H](NC)C(=O)O; NMeL = CN[C@@H](CC(C)C)C(=O)O; NMeV = CN[C@H](C(=O)O)C(C)C; NMeA = CN[C@@H](C)C(=O)O; Piperidide = C1CCN(*)CC1; dNMeA = CN[C@H](C)C(=O)O; β3hA = C[C@H](N)CC(=O)O; Sar = CNCC(=O)O; tBu = CC(C)(C)*

The nature of series [1]: PAMPA (parallel artificial membrane permeability assay). The series is classed as in vitro ADME. The conditions noted are these: PAMPA. In short, it runs like this: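 Artificial membrane was 10% (w/v) egg lecithin plus 0.5% (w/v) cholesterol in dodecane on a PVDF filter. A 10 mM DMSO stock was added at 0.5% (v/v) to donor buffer (50 mM MOPSO, pH 6.5, 5.0% glycocholic acid). After 18 h at 37 °C, LC/MS or LC/UV gave donor and acceptor levels for Pe.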

Series [2] is described as follows: Metabolic stability in human hepatic microsome. In kind it is in vitro ADME. To be noted: microsomes.
Setting [3] is: membrane permeation rate (Pe), 50 mM MOPSO buffer pH 6.5 with 5.0% glycocholic acid, 37° C., 18 hours, read-out: iPAMPA Pe.
Where [4] appears, read: pH 7.4, human hepatic microsome, NADPH(+), read-out: CL NADPH(+).

`CC(C)C[C@H]1C(=O)N(C)[C@@H](CC(C)C)C(=O)N[C@H](C(=O)N2CCCCC2)CC(=O)N(C)CCCC(=O)N(C)[C@@H](Cc2ccccc2)C(=O)N[C@@H]([C@@H](C)O)C(=O)N(C)[C@@H](CC(C)C)C(=O)N[C@@H](COC(C)(C)C)C(=O)N1C` [DP-686] ([NMeGABA][NMeF]T[NMeL]S(tBu)[NMeL][NMeL]D-Piperidide; lactam N-8): the Papp at 18 hours, 50 µM in series [1] (setting [3]) amounted to 36 ×10⁻⁶ cm/s. For the same molecule, the microsomal CLint at 1 uM in series [2] (setting [4]) turned out to be 227 µL/min/mg.

Take `CC[C@H](C)[C@@H]1NC(=O)[C@H](C(C)C)N(C)C(=O)[C@H](C)N(C)C(=O)[C@H]([C@@H](C)O)NC(=O)[C@H](CC(C)C)N(C)C(=O)[C@H](Cc2ccccc2)NC(=O)[C@H](CC(C)C)N(C)C(=O)[C@@H](C)N(C)C(=O)C[C@@H](C(=O)N2CCCCC2)NC(=O)[C@H](C)NC(=O)[C@H](CC(C)C)N(C)C1=O` [DP-417] ([dNMeA][NMeL]F[NMeL]T[NMeA][NMeV]I[NMeL]AD-Piperidide; lactam N-11): the Papp at 18 hours, 50 µM in series [1] (setting [3]) is 43 ×10⁻⁶ cm/s. For the same molecule, the microsomal CLint at 1 uM in series [2] (setting [4]) was 113 µL/min/mg.

In series [1] (pH 6.5), `CC[C@H](C)[C@H]1C(=O)N[C@@H]([C@@H](C)O)C(=O)N(C)CC(=O)N[C@H](C(=O)N2CCCCC2)CC(=O)N[C@H](C)C(=O)N[C@@H](CC(C)C)C(=O)N(C)[C@@H](CC(C)C)C(=O)N(C)[C@@H](Cc2ccccc2)C(=O)N[C@@H](C)C(=O)N(C)[C@@H](Cc2ccccc2)C(=O)N(C)[C@@H](CC(C)C)C(=O)N1C` [DP-97] ([dA]L[NMeL][NMeF]A[NMeF][NMeL][NMeI]T[Sar]D-Piperidide; lactam N-11) displayed a Papp at 18 hours, 50 µM of 27 ×10⁻⁶ cm/s. Further, in series [2] (human, pH 7.4, CL NADPH(+)), the microsomal CLint at 1 uM came out at 72 µL/min/mg.

For the molecule `CC[C@H](C)[C@@H]1NC(=O)[C@H](CC(C)C)N(C)C(=O)[C@H](C)NC(=O)[C@H](C)N(C)C(=O)C[C@@H](C(=O)N2CCCCC2)NC(=O)[C@H](C(C)C)N(C)C(=O)[C@H](Cc2ccccc2)N(C)C(=O)[C@H]([C@@H](C)O)NC(=O)[C@H](CC(C)C)N(C)C(=O)[C@H](Cc2ccccc2)NC1=O` [DP-173] ([NMeA]A[NMeL]IF[NMeL]T[NMeF][NMeV]D-Piperidide; lactam N-10), the Papp at 18 hours, 50 µM in series [1] (setting [3]) was 58 ×10⁻⁶ cm/s. Moreover, in series [2] (setting [4]), the microsomal CLint at 1 uM was 251 µL/min/mg.

Turning to `CC(C)C[C@@H]1NC(=O)[C@@H](C(C)C)NC(=O)C[C@H](C)NC(=O)[C@H](CC(C)C)N(C)C(=O)[C@H](Cc2ccccc2)N(C)C(=O)[C@H](CC(C)C)N(C)C(=O)[C@H](Cc2ccc(C(F)(F)F)cc2)NC(=O)[C@H](C)N(C)C(=O)[C@H]([C@@H](C)O)NC1=O` [DP-790] (cyclo(LT[NMeA][Phe(4-CF3)][NMeL][NMeF][NMeL][β3hA][dV])), in series [1] (setting [3]), the Papp at 18 hours, 50 µM came out at 56 ×10⁻⁶ cm/s. Also, the microsomal CLint at 1 uM in series [2] (setting [4]) was determined as 40 µL/min/mg.

With `CC(C)C[C@H]1C(=O)N(C)[C@@H](C(C)C)C(=O)N[C@@H]([C@@H](C)O)C(=O)N(C)CC(=O)N(C)[C@@H](C)C(=O)N(C)[C@@H](C)C(=O)N[C@@H](C(C)C)C(=O)N[C@H](C(=O)N2CCCCC2)CC(=O)N(C)[C@H](C)C(=O)N(C)[C@@H](C)C(=O)N[C@@H](C)C(=O)N(C)[C@@H](Cc2ccccc2)C(=O)N1C` [DP-319] ([dNMeA][NMeA]A[NMeF][NMeL][NMeV]T[Sar][NMeA][NMeA]VD-Piperidide; lactam N-12), the Papp at 18 hours, 50 µM in series [1] (setting [3]) is 1 ×10⁻⁶ cm/s. In series [2] (setting [4]), the microsomal CLint at 1 uM amounted to 12 µL/min/mg.

`CC[C@H](C)[C@H]1C(=O)N[C@@H](CC(C)C)C(=O)N(C)[C@@H](C)C(=O)N(C)[C@@H](Cc2ccccc2)C(=O)NCC(=O)N[C@@H]([C@@H](C)O)C(=O)N[C@@H](Cc2ccccc2)C(=O)N(C)[C@@H](CC(C)C)C(=O)N2CCC[C@H]2C(=O)N[C@H](C(=O)N2CCCCC2)Cc2cccc(c2)CCCCC(=O)N[C@@H](CC(C)C)C(=O)N1C` [DP-877] (L[NMeI]L[NMeA][NMeF]GTF[NMeL]P[Phe(3-(CH2)4CO)]-Piperidide; lactam N-11): the Papp at 18 hours, 50 µM in series [1] (setting [3]) stood at 4.6 ×10⁻⁶ cm/s. The microsomal CLint at 1 uM in series [2] (setting [4]) is 43 µL/min/mg.
